Test results as given in patent publication US5602100A, “Dermorphin analogs having pharmacological activity” (priority 1988, dated 1997).
Non-standard residues stand in square brackets, D forms with d. Residues, ends and D or L forms follow the SMILES beside them. dNle = CCCC[C@@H](N)C(=O)O; dDab = NCC[C@@H](N)C(=O)O; dNva = CCC[C@@H](N)C(=O)O; Orn = NCCC[C@H](N)C(=O)O; Dab = NCC[C@H](N)C(=O)O

Legend:
[1] = system: PBQ-induced writhing; assay: Mouse writhing test (PBQ); type: in vivo; details: dose reducing the number of writhes by 50%
Protocol: The mouse writhing test detects both peripherally and centrally mediated analgesic effects. The test procedure is described in Siegmund et al., Proc. Soc. Exp. Biol. Med., 95, p. 729 (1957). In this test, a control group of albino mice was injected intraperitoneally with 0.3 ml/20 g body weight of a 0.02% solution of 2-phenyl-1,4-benzoquinone (PBQ). The writhing and contortional movements of the mice over the following 15 minutes were recorded. A second group of mice was given a dose of a synthetic dermorphin analog according to this invention, then allowed to wait a period of time before being administered the PBQ injection. The average number of writhes was then recorded and compared to the control group. The results of this test are expressed as the dosage of peptide that reduces the number of writhes by 50% at a given time interval (referred to as ED50).

[2] = system: hot plate stimulus; assay: Mouse hot plate test; type: in vivo
Protocol: The mouse hot plate test is an assay which only detects centrally-mediated analgesic effects. This test was carried out using the protocol described in G. Woolfe and A. MacDonald, J. Pharmacol. Exp. Ther., 80, p. 300 ([…]).
Since most of the peptides of the invention were not potent centrally, it was impossible to determine an ED50 value. […] A result is considered insignificant if 30% of mice or lower have responded.

[3] = target: T1, μ-opioid receptor (Rattus norvegicus, UniProt P33535); assay: biochemical; type: binding
T1 construct: displacement of the radioligands from the rat brain membrane preparations; from tissue; host or cells: rat brain membrane preparations

[4] = target: T2, δ-opioid receptor (Rattus norvegicus, UniProt P33533); assay: biochemical; type: binding
T2 construct: displacement of the radioligands from the rat brain membrane preparations; from tissue; host or cells: rat brain membrane preparations

[5] = Respiration rate (respiratory depression); type: in vivo, rat; details: control 142 ± 5
Protocol: In addition to the mouse writhing data, respiratory depression was measured in certain treated mice. Respiratory depression is a commonly observed side effect characteristic of centrally-acting opiates. These reulsts are expressed in Table 5.

T1 sequence (P33535 whole entry): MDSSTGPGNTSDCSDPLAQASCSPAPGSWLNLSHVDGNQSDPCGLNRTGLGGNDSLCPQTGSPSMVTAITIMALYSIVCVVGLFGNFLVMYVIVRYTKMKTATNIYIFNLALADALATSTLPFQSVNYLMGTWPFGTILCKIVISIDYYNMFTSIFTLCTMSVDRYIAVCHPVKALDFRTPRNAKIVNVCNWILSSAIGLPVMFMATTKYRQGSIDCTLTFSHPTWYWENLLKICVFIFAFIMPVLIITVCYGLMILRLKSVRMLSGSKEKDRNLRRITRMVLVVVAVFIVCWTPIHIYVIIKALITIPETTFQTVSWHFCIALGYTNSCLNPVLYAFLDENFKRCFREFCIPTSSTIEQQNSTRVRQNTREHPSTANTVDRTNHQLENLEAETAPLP
T2 sequence (P33533 whole entry): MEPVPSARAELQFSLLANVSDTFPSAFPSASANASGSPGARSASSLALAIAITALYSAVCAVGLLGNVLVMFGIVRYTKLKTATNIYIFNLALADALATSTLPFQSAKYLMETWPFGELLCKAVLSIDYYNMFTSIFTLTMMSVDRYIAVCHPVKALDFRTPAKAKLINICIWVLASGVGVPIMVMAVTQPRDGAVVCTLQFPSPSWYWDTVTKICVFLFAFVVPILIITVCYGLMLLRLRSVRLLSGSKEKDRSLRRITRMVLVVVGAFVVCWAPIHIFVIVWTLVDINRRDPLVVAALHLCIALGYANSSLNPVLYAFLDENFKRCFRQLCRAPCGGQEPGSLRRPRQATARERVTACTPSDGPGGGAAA

SMILES	PBQ (20 min.) ED50 [1]	% of animals showing a 50% increase ([2]; dose 40 mg/kg, time 60 min.) [%]	Ki [3] [nM]	Ki^δ /Ki^μ [3]	Ki [4] [nM]	other results
NCCC[C@H](NC(=O)[C@H](Cc1ccccc1)NC(=O)[C@@H](Cc1ccccc1)NC(=O)[C@@H](N)Cc1ccc(O)cc1)C(N)=O [BCH-2457, H-Tyr-D-Phe-Phe-Orn-NH2] (H-Y[dF]F[Orn]-NH2)	1.8 mg/kg	40	7.39	333.37	2460	
C[C@@H](NC(=O)[C@@H](N)Cc1ccc(O)cc1)C(=O)N[C@@H](Cc1ccccc1)C(=O)N[C@@H](CCN)C(N)=O [BCH-2470, H-Tyr-D-Ala-Phe-A2 bu-NH2] (H-Y[dA]F[Dab]-NH2)	0.3 mg/kg		5.91	630.58	3730	% of animals showing a 50% increase ([2]; dose 40 mg/kg, time 120 min.): 90%
NCCCC[C@H](NC(=O)[C@H](Cc1ccccc1)NC(=O)[C@@H](CO)NC(=O)[C@@H](N)Cc1ccc(O)cc1)C(N)=O [BCH-2209, H-Tyr-D-Ser-Phe-Lys-NH2] (H-Y[dS]FK-NH2)	2.8 mg/kg		24.1	> 105	> 2530	% of animals showing a 50% increase ([2]; dose 40 mg/kg, time 30 min.): 40%; % of animals showing a 50% increase ([2]; dose 100 mg/kg, time 30 min.): 40%
CC(C)[C@@H](NC(=O)[C@@H](N)Cc1ccc(O)cc1)C(=O)N[C@@H](Cc1ccccc1)C(=O)N[C@@H](CCN)C(N)=O [BCH-2467, H-Tyr-D-Val-Phe-A2 bu-NH2] (H-Y[dV]F[Dab]-NH2)	2 mg/kg	90	2.64	1113.55	6280	
C[C@@H](NC(=O)[C@@H](N)Cc1ccc(O)cc1)C(=O)N[C@@H](Cc1ccccc1)C(=O)N[C@@H](CCCN)C(N)=O [BCH-2219, H-Tyr-D-Ala-Phe-Orn-NH2] (H-Y[dA]F[Orn]-NH2)	~ 1 mg/Kg		10.7	924.51	9880	% of animals showing a 50% increase ([2]; dose 40 mg/kg, time 30 min.): 60%
CCCC[C@@H](NC(=O)[C@@H](N)Cc1ccc(O)cc1)C(=O)N[C@@H](Cc1ccccc1)C(=O)N[C@@H](CCCCN)C(N)=O [BCH-2205, H-Tyr-D-Nle-Phe-Lys-NH2] (H-Y[dNle]FK-NH2)	1.8 mg/kg		12.4	306	3800	% of animals showing a 50% increase ([2]; dose 40 mg/kg, time 30 min.): 60%; % of animals showing a 50% increase ([2]; dose 100 mg/kg, time 60 min.): 60%; Breaths per min. ([5]; dose 30 mg/kg): 158 ± 7 breaths per min.; Breaths per min. ([5]; dose 100 mg/kg): 150 ± 4 breaths per min.
CC(C)C[C@H](NC(=O)[C@H](Cc1ccccc1)NC(=O)CNC(=O)[C@@H](CO)NC(=O)[C@@H](N)Cc1ccc(O)cc1)C(=O)N[C@H](C(=O)O)[C@@H](C)O [[^3 H]DSLET, reference compound]						Kd ([4]; read-out: Dissociation constant of radioligand): 2.6 nM
NCC[C@H](NC(=O)[C@H](Cc1ccccc1)NC(=O)[C@@H](CO)NC(=O)[C@@H](N)Cc1ccc(O)cc1)C(N)=O [BCH-2469, H-Tyr-D-Ser-Phe-A2 bu-NH2] (H-Y[dS]F[Dab]-NH2)	1.5 mg/kg	90	5.11	1071.20	5480	
CC(C)C[C@@H](NC(=O)[C@@H](N)Cc1ccc(O)cc1)C(=O)N[C@@H](Cc1ccccc1)C(=O)N[C@@H](CCCCN)C(N)=O [BCH-2207, H-Tyr-D-Leu-Phe-Lys-NH2] (H-Y[dL]FK-NH2)			168	> 15	> 2530	% of animals showing a 50% increase ([2]; dose 40 mg/kg, time 30 min.): 20%; % of animals showing a 50% increase ([2]; dose 100 mg/kg, time 50 min.): 0%
CCCC[C@@H](NC(=O)[C@@H](N)Cc1ccc(O)cc1)C(=O)N[C@@H](Cc1ccccc1)C(=O)N[C@@H](CCN)C(N)=O [BCH-2472, H-Tyr-D-Nle-Phe-A2 bu-NH2] (H-Y[dNle]F[Dab]-NH2)	0.8 mg/kg	60	10.2	207.88	2130	
CC(C)[C@@H](NC(=O)[C@@H](N)Cc1ccc(O)cc1)C(=O)N[C@@H](Cc1ccccc1)C(=O)N[C@@H](CCCN)C(N)=O [BCH-2458, H-Tyr-D-Val-Phe-Orn-NH2] (H-Y[dV]F[Orn]-NH2)	1.0 mg/kg		13.3	658.27	8780	% of animals showing a 50% increase ([2]; dose 40 mg/kg, time 30 min.): 30%; % of animals showing a 50% increase ([2]; dose 100 mg/kg, time 60 min.): 55%
NCCCC[C@H](NC(=O)[C@H](Cc1ccccc1)NC(=O)[C@@H](Cc1ccccc1)NC(=O)[C@@H](N)Cc1ccc(O)cc1)C(N)=O [BCH-2460, H-Tyr-D-Phe-Phe-Lys-NH2] (H-Y[dF]FK-NH2)	~ 3 mg/Kg		19	99.47	1900	
N=C(N)NCCC[C@@H](NC(=O)[C@@H](N)Cc1ccc(O)cc1)C(=O)N[C@@H](Cc1ccccc1)C(=O)N[C@@H](Cc1ccccc1)C(N)=O [BCH-2687, H-Tyr-D-Arg-Phe-Phe-NH2] (H-Y[dR]FF-NH2)		70				
CC(C)C[C@@H](NC(=O)[C@@H](N)Cc1ccc(O)cc1)C(=O)N[C@@H](Cc1ccccc1)C(=O)N[C@@H](CCCN)C(N)=O [BCH-2459, H-Tyr-D-Leu-Phe-Orn-NH2] (H-Y[dL]F[Orn]-NH2)			77.5	240.10	18600	
CCC[C@@H](NC(=O)[C@@H](N)Cc1ccc(O)cc1)C(=O)N[C@@H](Cc1ccccc1)C(=O)N[C@@H](CCN)C(N)=O [BCH-2471, H-Tyr-D-Nva-Phe-A2 bu-NH2] (H-Y[dNva]F[Dab]-NH2)	0.2 mg/kg	100	0.56	790.51	441	
N=C(N)NCCC[C@H](NC(=O)[C@H](Cc1ccccc1)NC(=O)[C@@H](CCCNC(=N)N)NC(=O)[C@@H](N)Cc1ccc(O)cc1)C(N)=O [BCH-1766, H-Tyr-D-Arg-Phe-Arg-NH2] (H-Y[dR]FR-NH2)			98.8	121	12000	
CC[C@@H](C)[C@@H](NC(=O)[C@@H](N)Cc1ccc(O)cc1)C(=O)N[C@@H](Cc1ccccc1)C(=O)N[C@@H](CCN)C(N)=O [BCH-2468, H-Tyr-D-Ile-Phe-A2 bu-NH2] (H-Y[dI]F[Dab]-NH2)	3 to 10 mg/kg		9.7	260.61	2530	
CC[C@@H](C)[C@@H](NC(=O)[C@@H](N)Cc1ccc(O)cc1)C(=O)N[C@@H](Cc1ccccc1)C(=O)N[C@@H](CCCCN)C(N)=O [BCH-2203, H-Tyr-D-Ile-Phe-Lys-NH2] (H-Y[dI]FK-NH2)	0.8 mg/kg		7.49	> 338	> 2530	% of animals showing a 50% increase ([2]; dose 40 mg/kg, time 120 min.): 80%
NCCC[C@H](NC(=O)[C@H](Cc1ccccc1)NC(=O)[C@@H](CO)NC(=O)[C@@H](N)Cc1ccc(O)cc1)C(N)=O [BCH-2461, H-Tyr-D-Ser-Phe-Orn-NH2] (H-Y[dS]F[Orn]-NH2)	0.7 mg/kg		13.2	1210.57	15900	% of animals showing a 50% increase ([2]; dose 40 mg/kg, time 30 min.): 50%
CC[C@@H](C)[C@@H](NC(=O)[C@@H](N)Cc1ccc(O)cc1)C(=O)N[C@@H](Cc1ccccc1)C(=O)N[C@@H](CCCN)C(N)=O [BCH-2456, H-Tyr-D-Ile-Phe-Orn-NH2] (H-Y[dI]F[Orn]-NH2)	0.6 mg/kg	40	4.49	952.35	4280	% of animals showing a 50% increase ([2]; dose 100 mg/kg, time 60 min.): 50%
NCCC[C@H](NC(=O)[C@H](Cc1ccccc1)NC(=O)[C@@H](CCN)NC(=O)[C@@H](N)Cc1ccc(O)cc1)C(N)=O [BCH-2580, H-Tyr-D-A2 bu-Phe-Orn-NH2] (H-Y[dDab]F[Orn]-NH2)	1.2 mg/kg	80		411.98		
CC(C)C[C@@H](NC(=O)[C@@H](N)Cc1ccc(O)cc1)C(=O)N[C@@H](Cc1ccccc1)C(=O)N[C@@H](CCN)C(N)=O [BCH-2474, H-Tyr-D-Leu-Phe-A2 bu-NH2] (H-Y[dL]F[Dab]-NH2)	> 10 mg/kg		69.8	186.98	13100	
N=C(N)NCCC[C@@H](NC(=O)[C@@H](N)Cc1ccc(O)cc1)C(=O)N[C@@H](Cc1ccccc1)C(=O)N[C@@H](CO)C(N)=O [BCH-2688, H-Tyr-D-Arg-Phe-Ser-NH2] (H-Y[dR]FS-NH2)		100				
NCC[C@H](NC(=O)[C@H](Cc1ccccc1)NC(=O)[C@@H](Cc1ccccc1)NC(=O)[C@@H](N)Cc1ccc(O)cc1)C(N)=O [BCH-2466, H-Tyr-D-Phe-Phe-A2 bu-NH2] (H-Y[dF]F[Dab]-NH2)	0.2 mg/kg	80	2.81	507.59	1420	
